Laboratory results taken from ChEMBL document CHEMBL4507278 (2021).

Tests used:
[1] = biological target: Tyrosine-protein kinase Fer (Homo sapiens) (UniProt P16591); conditions: Compound concentration 1000.0 nM
[2] = biological target: TGF-beta receptor type-1 (Homo sapiens) (UniProt P36897); conditions: Compound concentration 1000.0 nM
[3] = biological target: Serine/threonine-protein kinase RIO2 (Homo sapiens) (UniProt Q9BVS4); conditions: Compound concentration 1000.0 nM
[4] = biological target: STE20/SPS1-related proline-alanine-rich protein kinase (Homo sapiens) (UniProt Q9UEW8); conditions: Compound concentration 1000.0 nM
[5] = biological target: Transient receptor potential cation channel subfamily M member 6 (Homo sapiens) (UniProt Q9BX84); conditions: Compound concentration 1000.0 nM
Sequence of Transient receptor potential cation channel subfamily M member 6 (Homo sapiens) (Q9BX84 whole entry): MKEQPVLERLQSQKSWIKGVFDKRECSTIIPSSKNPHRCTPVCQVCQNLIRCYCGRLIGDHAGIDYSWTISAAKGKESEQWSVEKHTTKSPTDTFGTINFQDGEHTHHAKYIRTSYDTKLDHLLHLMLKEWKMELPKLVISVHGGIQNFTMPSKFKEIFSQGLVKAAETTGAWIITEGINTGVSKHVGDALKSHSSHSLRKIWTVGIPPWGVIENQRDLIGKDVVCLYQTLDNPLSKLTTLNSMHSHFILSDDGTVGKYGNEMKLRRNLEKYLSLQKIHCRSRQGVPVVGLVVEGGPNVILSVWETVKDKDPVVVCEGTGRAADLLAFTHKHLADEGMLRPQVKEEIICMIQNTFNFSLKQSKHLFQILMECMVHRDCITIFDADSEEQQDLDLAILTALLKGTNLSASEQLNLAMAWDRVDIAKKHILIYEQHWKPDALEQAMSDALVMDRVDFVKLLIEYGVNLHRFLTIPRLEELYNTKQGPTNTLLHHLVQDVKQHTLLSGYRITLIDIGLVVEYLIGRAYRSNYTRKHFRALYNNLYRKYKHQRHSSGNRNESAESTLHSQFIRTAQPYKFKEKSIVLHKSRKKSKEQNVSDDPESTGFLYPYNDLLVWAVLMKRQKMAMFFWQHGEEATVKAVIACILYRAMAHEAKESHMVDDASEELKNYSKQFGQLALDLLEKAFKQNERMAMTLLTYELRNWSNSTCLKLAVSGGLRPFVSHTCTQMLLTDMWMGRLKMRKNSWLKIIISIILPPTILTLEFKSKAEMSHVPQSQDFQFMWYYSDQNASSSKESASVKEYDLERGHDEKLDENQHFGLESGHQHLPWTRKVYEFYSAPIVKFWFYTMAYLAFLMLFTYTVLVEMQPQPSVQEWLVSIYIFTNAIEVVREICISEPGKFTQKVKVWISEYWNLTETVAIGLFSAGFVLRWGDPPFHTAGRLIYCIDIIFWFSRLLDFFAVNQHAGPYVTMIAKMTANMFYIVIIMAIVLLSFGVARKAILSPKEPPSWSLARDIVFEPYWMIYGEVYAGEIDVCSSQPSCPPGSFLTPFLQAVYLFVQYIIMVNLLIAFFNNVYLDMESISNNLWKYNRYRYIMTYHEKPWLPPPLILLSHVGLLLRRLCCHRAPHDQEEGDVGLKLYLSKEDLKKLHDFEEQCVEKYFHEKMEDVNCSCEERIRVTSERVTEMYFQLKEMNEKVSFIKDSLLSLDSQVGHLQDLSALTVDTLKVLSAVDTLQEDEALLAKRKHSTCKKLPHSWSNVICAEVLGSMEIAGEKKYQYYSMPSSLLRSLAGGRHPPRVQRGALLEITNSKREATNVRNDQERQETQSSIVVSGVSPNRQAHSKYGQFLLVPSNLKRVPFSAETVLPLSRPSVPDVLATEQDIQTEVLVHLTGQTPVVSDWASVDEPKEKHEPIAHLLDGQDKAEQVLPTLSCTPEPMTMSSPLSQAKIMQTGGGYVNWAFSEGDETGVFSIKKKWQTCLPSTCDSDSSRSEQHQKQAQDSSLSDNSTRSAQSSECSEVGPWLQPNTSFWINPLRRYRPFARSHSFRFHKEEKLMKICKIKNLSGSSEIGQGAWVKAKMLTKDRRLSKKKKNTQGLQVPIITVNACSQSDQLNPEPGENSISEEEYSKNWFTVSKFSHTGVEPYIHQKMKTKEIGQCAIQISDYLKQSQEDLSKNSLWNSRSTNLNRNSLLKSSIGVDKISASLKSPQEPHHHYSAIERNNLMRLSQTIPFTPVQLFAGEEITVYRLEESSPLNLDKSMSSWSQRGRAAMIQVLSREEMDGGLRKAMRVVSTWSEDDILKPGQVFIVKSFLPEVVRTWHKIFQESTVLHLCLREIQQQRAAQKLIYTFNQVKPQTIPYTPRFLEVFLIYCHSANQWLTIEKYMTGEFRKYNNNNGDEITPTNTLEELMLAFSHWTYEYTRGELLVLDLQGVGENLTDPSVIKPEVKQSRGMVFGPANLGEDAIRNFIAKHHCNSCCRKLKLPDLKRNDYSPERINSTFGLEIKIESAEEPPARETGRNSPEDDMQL

[6] = biological target: Serine/threonine-protein kinase 38 (Homo sapiens) (UniProt Q15208); conditions: Compound concentration 1000.0 nM
[7] = biological target: Serine/threonine-protein kinase 24 (Homo sapiens) (UniProt Q9Y6E0); conditions: Compound concentration 1000.0 nM
[8] = biological target: Ribosomal protein S6 kinase alpha-6 (Homo sapiens) (UniProt Q9UK32); conditions: Compound concentration 1000.0 nM
[9] = biological target: Serine/threonine-protein kinase WNK4 (Homo sapiens) (UniProt Q96J92); conditions: Compound concentration 1000.0 nM
[10] = biological target: Serine/threonine-protein kinase TAO3 (Homo sapiens) (UniProt Q9H2K8); conditions: Compound concentration 1000.0 nM
Sequence of Serine/threonine-protein kinase TAO3 (Homo sapiens) (Q9H2K8 whole entry): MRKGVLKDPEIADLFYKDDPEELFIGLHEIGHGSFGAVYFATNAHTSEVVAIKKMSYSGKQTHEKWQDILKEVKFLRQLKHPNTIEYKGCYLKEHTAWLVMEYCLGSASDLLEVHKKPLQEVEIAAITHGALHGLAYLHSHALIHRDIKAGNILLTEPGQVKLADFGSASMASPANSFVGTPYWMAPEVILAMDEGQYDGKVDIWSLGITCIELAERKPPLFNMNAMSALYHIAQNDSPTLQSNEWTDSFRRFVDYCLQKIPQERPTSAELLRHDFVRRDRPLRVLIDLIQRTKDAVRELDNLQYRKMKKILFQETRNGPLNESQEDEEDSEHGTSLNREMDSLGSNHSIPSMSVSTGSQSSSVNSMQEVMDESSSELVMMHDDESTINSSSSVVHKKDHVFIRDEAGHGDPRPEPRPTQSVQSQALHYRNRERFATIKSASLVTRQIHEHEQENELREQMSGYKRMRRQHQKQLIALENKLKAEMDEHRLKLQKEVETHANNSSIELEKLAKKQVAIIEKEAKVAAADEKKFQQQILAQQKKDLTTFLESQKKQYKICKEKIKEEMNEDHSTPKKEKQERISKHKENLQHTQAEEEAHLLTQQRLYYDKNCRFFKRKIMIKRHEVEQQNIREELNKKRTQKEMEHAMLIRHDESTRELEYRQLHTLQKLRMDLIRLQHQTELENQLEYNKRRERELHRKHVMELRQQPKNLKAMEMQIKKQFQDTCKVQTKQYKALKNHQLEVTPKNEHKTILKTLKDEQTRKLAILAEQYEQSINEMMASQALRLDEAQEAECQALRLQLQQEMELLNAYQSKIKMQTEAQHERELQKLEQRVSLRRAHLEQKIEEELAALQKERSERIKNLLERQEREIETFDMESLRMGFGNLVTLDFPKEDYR

[11] = biological target: MAP kinase-activated protein kinase 5 (Homo sapiens) (UniProt Q8IW41); conditions: Compound concentration 1000.0 nM
[12] = biological target: Receptor-type tyrosine-protein kinase FLT3 (Homo sapiens) (UniProt P36888); conditions: Compound concentration 1000.0 nM
[13] = biological target: Fibroblast growth factor receptor 1 (Homo sapiens) (UniProt P11362); conditions: Compound concentration 1000.0 nM
[14] = biological target: Casein kinase II subunit alpha' (Homo sapiens) (UniProt P19784); conditions: Compound concentration 1000.0 nM
Sequence of Casein kinase II subunit alpha' (Homo sapiens) (P19784 whole entry, looked up): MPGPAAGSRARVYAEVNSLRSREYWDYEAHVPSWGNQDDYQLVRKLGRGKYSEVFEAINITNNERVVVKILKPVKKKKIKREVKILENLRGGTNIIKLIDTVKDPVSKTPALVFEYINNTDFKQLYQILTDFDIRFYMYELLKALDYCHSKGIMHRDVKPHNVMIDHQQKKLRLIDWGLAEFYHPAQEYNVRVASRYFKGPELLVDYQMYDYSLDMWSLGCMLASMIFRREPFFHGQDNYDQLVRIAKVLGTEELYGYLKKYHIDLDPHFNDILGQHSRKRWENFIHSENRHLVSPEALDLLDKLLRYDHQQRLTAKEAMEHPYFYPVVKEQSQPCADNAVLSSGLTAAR

[15] = biological target: Mitogen-activated protein kinase 12 (Homo sapiens) (UniProt P53778); conditions: Compound concentration 1000.0 nM
Sequence of Mitogen-activated protein kinase 12 (Homo sapiens) (P53778 whole entry): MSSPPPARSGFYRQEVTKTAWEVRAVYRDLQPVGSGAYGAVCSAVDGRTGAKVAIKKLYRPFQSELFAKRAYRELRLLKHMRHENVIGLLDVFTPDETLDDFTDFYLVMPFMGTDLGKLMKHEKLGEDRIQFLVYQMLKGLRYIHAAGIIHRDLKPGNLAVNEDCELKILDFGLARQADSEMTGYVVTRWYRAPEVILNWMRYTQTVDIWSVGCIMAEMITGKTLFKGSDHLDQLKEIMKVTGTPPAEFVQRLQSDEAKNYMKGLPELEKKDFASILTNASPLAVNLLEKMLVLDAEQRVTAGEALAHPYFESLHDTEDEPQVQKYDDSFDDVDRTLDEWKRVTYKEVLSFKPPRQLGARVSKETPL

[16] = tested on: Receptor-type tyrosine-protein kinase FLT3 (Homo sapiens), P36888 [D835V]; conditions: Compound concentration 1000.0 nM
[17] = biological target: Receptor-interacting serine/threonine-protein kinase 4 (Homo sapiens) (UniProt P57078); conditions: Compound concentration 1000.0 nM
[18] = biological target: Phosphatidylinositol 3-kinase catalytic subunit type 3 (Homo sapiens) (UniProt Q8NEB9); conditions: Compound concentration 1000.0 nM
[19] = biological target: Serine/threonine-protein kinase MARK1 (Homo sapiens) (UniProt Q9P0L2); conditions: Compound concentration 1000.0 nM
[20] = biological target: Serine/threonine-protein kinase DCLK1 (Homo sapiens) (UniProt O15075); conditions: Compound concentration 1000.0 nM
[21] = biological target: Tyrosine-protein kinase Fgr (Homo sapiens) (UniProt P09769); conditions: Compound concentration 1000.0 nM
[22] = biological target: Casein kinase I isoform gamma-1 (Homo sapiens) (UniProt Q9HCP0); conditions: Compound concentration 1000.0 nM
Sequence of Casein kinase I isoform gamma-1 (Homo sapiens) (Q9HCP0 whole entry, looked up, canonical isoform): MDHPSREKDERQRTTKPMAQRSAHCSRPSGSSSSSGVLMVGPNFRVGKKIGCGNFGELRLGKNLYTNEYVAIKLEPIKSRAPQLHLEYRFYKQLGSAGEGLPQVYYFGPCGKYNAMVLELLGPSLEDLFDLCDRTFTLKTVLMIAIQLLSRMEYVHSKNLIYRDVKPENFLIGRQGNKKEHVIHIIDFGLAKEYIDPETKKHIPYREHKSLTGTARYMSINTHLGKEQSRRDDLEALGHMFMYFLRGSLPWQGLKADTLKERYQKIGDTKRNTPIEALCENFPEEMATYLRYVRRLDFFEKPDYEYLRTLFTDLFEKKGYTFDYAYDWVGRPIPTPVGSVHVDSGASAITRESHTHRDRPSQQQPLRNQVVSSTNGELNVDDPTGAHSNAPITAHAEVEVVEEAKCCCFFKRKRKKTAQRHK

[23] = biological target: Serine/threonine-protein kinase 4 (Homo sapiens) (UniProt Q13043); conditions: Compound concentration 1000.0 nM
[24] = biological target: Ephrin type-B receptor 4 (Homo sapiens) (UniProt P54760); conditions: Compound concentration 1000.0 nM
[25] = biological target: Dual specificity tyrosine-phosphorylation-regulated kinase 2 (Homo sapiens) (UniProt Q92630); conditions: Compound concentration 1000.0 nM
[26] = biological target: Mitogen-activated protein kinase kinase kinase 14 (Homo sapiens) (UniProt Q99558); conditions: Compound concentration 1000.0 nM
[27] = biological target: Protein-tyrosine kinase 6 (Homo sapiens) (UniProt Q13882); conditions: Compound concentration 1000.0 nM
[28] = biological target: SRSF protein kinase 2 (Homo sapiens) (UniProt P78362); conditions: Compound concentration 1000.0 nM
[29] = biological target: Alpha-1A adrenergic receptor (Homo sapiens) (UniProt P35348); conditions: Compound concentration 10.0 uM
[30] = biological target: BDNF/NT-3 growth factors receptor (Homo sapiens) (UniProt Q16620); conditions: Compound concentration 1000.0 nM
[31] = biological target: Tyrosine-protein kinase Tec (Homo sapiens) (UniProt P42680); conditions: Compound concentration 1000.0 nM
[32] = biological target: Serine/threonine-protein kinase PLK4 (Homo sapiens) (UniProt O00444); conditions: Compound concentration 1000.0 nM
[33] = tested on: Tyrosine-protein kinase ABL1 (Homo sapiens), P00519 [H396P]; conditions: Compound concentration 1000.0 nM
[34] = biological target: 5-hydroxytryptamine receptor 1D (Homo sapiens) (UniProt P28221); conditions: Compound concentration 10.0 uM
[35] = biological target: Ephrin type-A receptor 6 (Homo sapiens) (UniProt Q9UF33); conditions: Compound concentration 1000.0 nM
Sequence of Ephrin type-A receptor 6 (Homo sapiens) (Q9UF33 whole entry): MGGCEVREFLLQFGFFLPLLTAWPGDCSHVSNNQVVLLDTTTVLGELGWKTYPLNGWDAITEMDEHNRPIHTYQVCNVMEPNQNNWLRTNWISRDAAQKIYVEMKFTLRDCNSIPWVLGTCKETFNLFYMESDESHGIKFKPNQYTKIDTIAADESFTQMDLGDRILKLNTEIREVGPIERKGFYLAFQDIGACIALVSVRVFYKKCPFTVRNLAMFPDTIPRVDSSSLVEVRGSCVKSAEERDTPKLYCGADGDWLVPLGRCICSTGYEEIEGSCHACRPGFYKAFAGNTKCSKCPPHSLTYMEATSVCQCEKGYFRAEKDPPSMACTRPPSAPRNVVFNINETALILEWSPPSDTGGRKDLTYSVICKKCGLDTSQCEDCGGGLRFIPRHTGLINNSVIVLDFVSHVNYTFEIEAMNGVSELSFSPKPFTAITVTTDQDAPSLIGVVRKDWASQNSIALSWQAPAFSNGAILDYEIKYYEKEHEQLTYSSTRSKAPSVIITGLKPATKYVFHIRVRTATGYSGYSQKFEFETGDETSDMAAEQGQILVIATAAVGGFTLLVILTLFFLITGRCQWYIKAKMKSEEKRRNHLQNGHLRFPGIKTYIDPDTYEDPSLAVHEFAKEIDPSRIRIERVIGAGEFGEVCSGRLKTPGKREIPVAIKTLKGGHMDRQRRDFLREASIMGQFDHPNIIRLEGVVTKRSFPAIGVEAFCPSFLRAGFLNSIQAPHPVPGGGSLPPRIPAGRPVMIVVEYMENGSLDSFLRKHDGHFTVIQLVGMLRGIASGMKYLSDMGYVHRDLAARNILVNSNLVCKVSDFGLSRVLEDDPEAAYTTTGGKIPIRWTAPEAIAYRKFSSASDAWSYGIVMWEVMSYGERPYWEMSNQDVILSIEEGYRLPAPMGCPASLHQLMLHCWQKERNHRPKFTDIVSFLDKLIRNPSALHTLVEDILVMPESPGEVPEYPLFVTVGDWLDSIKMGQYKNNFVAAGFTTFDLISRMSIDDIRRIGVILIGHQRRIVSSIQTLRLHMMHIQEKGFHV

[36] = biological target: Cyclin-dependent kinase 13 (Homo sapiens) (UniProt Q14004); conditions: Compound concentration 1000.0 nM
[37] = biological target: Mitogen-activated protein kinase 8 (Homo sapiens) (UniProt P45983); conditions: Compound concentration 1000.0 nM
[38] = biological target: Serine/threonine-protein kinase 32B (Homo sapiens) (UniProt Q9NY57); conditions: Compound concentration 1000.0 nM
[39] = biological target: Serine/threonine-protein kinase 32A (Homo sapiens) (UniProt Q8WU08); conditions: Compound concentration 1000.0 nM
[40] = biological target: D(2) dopamine receptor (Homo sapiens) (UniProt P14416); conditions: Compound concentration 10.0 uM
[41] = tested on: Receptor-type tyrosine-protein kinase FLT3 (Homo sapiens), P36888 [UNDEFINED MUTATION]; conditions: Compound concentration 1000.0 nM
[42] = biological target: RAC-gamma serine/threonine-protein kinase (Homo sapiens) (UniProt Q9Y243); conditions: Compound concentration 1000.0 nM
[43] = biological target: Rho-associated protein kinase 1 (Homo sapiens) (UniProt Q13464); conditions: Compound concentration 1000.0 nM
[44] = biological target: Mitogen-activated protein kinase kinase kinase 4 (Homo sapiens) (UniProt Q9Y6R4); conditions: Compound concentration 1000.0 nM
[45] = biological target: Dual specificity mitogen-activated protein kinase kinase 7 (Homo sapiens) (UniProt O14733); conditions: Compound concentration 1000.0 nM

CS(=O)(=O)NCC[C@H](NC(=O)c1cncc2c1cnn2-c1ccc(F)cc1)c1ccnc(S(C)(=O)=O)c1 [BI 9307]
inactive: residual activity [1] 100% | residual activity [2] 100% | residual activity [3] 100% | residual activity [4] 80% | residual activity [5] 100% | residual activity [6] 100% | residual activity [7] 100% | residual activity [8] 100% | residual activity [9] 100% | residual activity [10] 80% | residual activity [11] 100% | residual activity [12] 93% | residual activity [13] 87% | residual activity [14] 100% | residual activity [15] 100% | residual activity [16] 100% | residual activity [17] 88% | residual activity [18] 100% | residual activity [19] 92% | residual activity [20] 94% | residual activity [21] 100% | residual activity [22] 91% | residual activity [23] 100% | residual activity [24] 100% | residual activity [25] 91% | residual activity [26] 100% | residual activity [27] 96% | residual activity [28] 100% | inhibition [29] -3.82% | residual activity [30] 100% | residual activity [31] 96% | residual activity [32] 89% | residual activity [33] 100% | inhibition [34] 38.9% | residual activity [35] 100% | residual activity [36] 100% | residual activity [37] 80% | residual activity [38] 67% | residual activity [39] 74% | inhibition [40] -5.26% | residual activity [41] 100% | residual activity [42] 93% | residual activity [43] 100% | residual activity [44] 84% | residual activity [45] 100%

CS(=O)(=O)c1cc(C2(NC(=O)c3cncc4c3cnn4-c3ccc(F)cc3)CC2)ccn1 [BI 639667]
inactive: residual activity [1] 100% | residual activity [2] 100% | residual activity [3] 94% | residual activity [4] 58% | residual activity [5] 91% | residual activity [6] 100% | residual activity [7] 82% | residual activity [8] 64% | residual activity [9] 97% | residual activity [10] 97% | residual activity [11] 87% | residual activity [12] 100% | residual activity [13] 95% | residual activity [14] 80% | residual activity [15] 100% | residual activity [16] 100% | residual activity [17] 87% | residual activity [18] 86% | residual activity [19] 100% | residual activity [20] 75% | residual activity [21] 100% | residual activity [22] 100% | residual activity [23] 77% | residual activity [24] 100% | residual activity [25] 95% | residual activity [26] 61% | residual activity [27] 80% | residual activity [28] 100% | inhibition [29] -7.71% | residual activity [30] 91% | residual activity [31] 99% | residual activity [32] 85% | residual activity [33] 100% | inhibition [34] 14.5% | residual activity [35] 100% | residual activity [36] 100% | residual activity [37] 95% | residual activity [38] 100% | residual activity [39] 71% | inhibition [40] 6.62% | residual activity [41] 70% | residual activity [42] 96% | residual activity [43] 79% | residual activity [44] 87% | residual activity [45] 91%
